One test relates to M21. Nature of the test: trypan blue exclusion assay, M21 cells. In kind it is cell-based. The following applies: Homo sapiens. Here is the method:
M21 cell line (human malignant melanoma) was provided by Dr. Feng-Yao Tang (China Medical University, Taiwan). Cells were grown in monolayer culture in RPMI-1640 medium, Eagle's minimum essential medium or Dulbecco's modified Eagles medium (Invitrogen Corporation, Grand Island, N.Y., USA) containing 10% fetal bovine serum (FBS; HyClone, Logan, Utah, USA), 100 U/ml penicillin and 100 μg/ml streptomycin (Gibco BRL, Rockville, Md., USA).
(§1) Cell viability was also determined by trypan-blue exclusion assay. Cells were seeded in 6-well plates (2×10^4/well) for trypan blue exclusion assay, and incubated for 24 hours at 37° C. Culture medium containing test compound or DMSO (0.006%) was added to each well, and cells were incubated at 37° C. At indicated time points (0, 24, 48, 72 and 96 hr), cells were suspended with 0.05% trypsin-EDTA, and stained with trypan-blue dye (0.4%) (Sigma). The cell viability was evaluated by the percentage of death relative to the total cell, and cell growth curve was determined by number of live cells relative to the total number of cells.
The anti-proliferation effects of Compounds 17-31 on M21, CH27, H460, Hep3B and HSC-3 cells were evaluated by the trypan blue exclusion assay.

Another test concerns C6 rat glioma. Nature of the test: MTS cell viability assay, C6 glioma cells. In kind it is cell-based. To be noted: 48 hours, mean±SEM, n=3. The protocol:
The human glioma cell lines U87, U251, T98G, U373, and rat glioma cell line RT2 provided by Dr. Michael Hsiao (Genomics Research Center, Academia Sinica, Taiwan) were cultured in Dulbecco's Modified Eagle medium (DMEM) (Caisson) supplemented with 10% fetal bovine serum (FBS) (Sigma-Aldrich), 2 mM L-glutamine (Caisson), 100 U/ml penicillin, and 100 μg/ml streptomycin (Caisson). The rat glioma C6 cell line provided by Dr. Shun-Fen Tzeng (National Cheng Kung University, Taiwan) was cultured in DMEM/F12 (Caisson) supplemented with 10% fetal bovine serum, 2 mM L-glutamine, 100 U/ml penicillin, and 100 μg/ml streptomycin. The human normal glia cell line SVGP12, kindly provided by Dr. Michael Hsiao, was cultured in Minimum Essential Medium (MEM) (Invitrogen) supplemented with 10% fetal bovine serum, 2 mM L-glutamine, 100 U/ml penicillin, and […]. Primary glia cells were prepared by surgery. Cerebral cortices without meninges were dissected from postnatal (P0-P2) Sprague-Dawley (SD, NCKU Laboratory Animal Center) rats and dissociated in 0.05% trypsin-EDTA (Biowest) at 37° C. for 10 min. Culture medium was added and pipetted for several times, and supernatant was removed after a centrifugation at 1,000 rpm for 5 minutes. […]
Cell proliferation was determined by MTS (tetrazolium compound, 3-(4,5-dimethylthiazol-2-yl)-5-(3-carboxymethoxyphenyl)-2-(4-sulfophenyl)-2H-tetrazolium) assay (Promega). […] The absorbance of soluble formazan was measured at 490 nm with microplate reader (Molecular device). The cell viability was determined by the percentage of the absorption relative to untreated control. […]
To investigate the effect of 2-aryl-4-quinazolinone in accordance with the present invention on cell proliferation, glioma cell lines were treated with MJ-66, MJ-68, or MJ-78. […] The cell viability of each group was analyzed by MTS assay (mean±SEM, n=3).

A further test relates to C6 glioma cells. Nature of the test: trypan blue exclusion cell death assay, C6 glioma cells. In kind it is cell-based, rat. To be noted: 60 nM, at the 72nd hour, p<0.05 versus control. Here is the method:
as §1
To investigate the glioma cell death induced by MJ-66, cell viability was assessed by trypan blue exclusion assay. C6 and U87 glioma cells treated with MJ-66 (30, 60, 90 nM) or DMSO (0.009%) for 0, 24, 48, 72 and 96 hours (hr) were observed under bright field microscope (FIG. 4A). The percentages of cell death and cell growth curve were determined by trypan blue assay followed by cell counting (mean±SEM, n=3). Relative to total cell number, trypan blue positive cells were defined as dead cells.

Like-named read-outs stand apart in the source and are kept apart here.

As for `O=c1[nH]c(-c2cccc3ccccc23)nc2ccc(N3CCCC3)cc12` [Compound 23, 6-(Pyrrolidin-1-yl)-2-(naphthalen-1-yl)quinazolin-4-one], the 50% inhibitory concentration (IC50) was roughly 33 nM in the test with M21 (M21, in vitro, read-out: IC50, growth of human malignant melanoma cells); 33 nM in the test on M21 (M21 skin cancer, trypan blue exclusion assay, read-out: IC50 M21); 56 ± 9 nM with C6 rat glioma. Also, in the test on C6 glioma cells, the “percentage of dead cells, C6” value is on record as “significantly induced”.

These data come from patent US8710064B2, “2-aryl-4-quinazolinones and their pharmaceutical compositions” (China Medical University, priority 2011, dated 2014).
